In ChEMBL document CHEMBL1201862, “PubChem BioAssay data set” (2004):
Calls of active or inactive are those of the source.

Assays:
[1] = biological target: T1, Acyl-homoserine lactone acylase PvdQ (Pseudomonas aeruginosa (strain LESB58), UniProt Q9I194); assay: PvdQ acylase enzyme activity blockers – biochemical, fluorescence, plate reader and imaging, cherry-picks, dose response (AID 493231)
T1 sequence (Q9I194 whole entry): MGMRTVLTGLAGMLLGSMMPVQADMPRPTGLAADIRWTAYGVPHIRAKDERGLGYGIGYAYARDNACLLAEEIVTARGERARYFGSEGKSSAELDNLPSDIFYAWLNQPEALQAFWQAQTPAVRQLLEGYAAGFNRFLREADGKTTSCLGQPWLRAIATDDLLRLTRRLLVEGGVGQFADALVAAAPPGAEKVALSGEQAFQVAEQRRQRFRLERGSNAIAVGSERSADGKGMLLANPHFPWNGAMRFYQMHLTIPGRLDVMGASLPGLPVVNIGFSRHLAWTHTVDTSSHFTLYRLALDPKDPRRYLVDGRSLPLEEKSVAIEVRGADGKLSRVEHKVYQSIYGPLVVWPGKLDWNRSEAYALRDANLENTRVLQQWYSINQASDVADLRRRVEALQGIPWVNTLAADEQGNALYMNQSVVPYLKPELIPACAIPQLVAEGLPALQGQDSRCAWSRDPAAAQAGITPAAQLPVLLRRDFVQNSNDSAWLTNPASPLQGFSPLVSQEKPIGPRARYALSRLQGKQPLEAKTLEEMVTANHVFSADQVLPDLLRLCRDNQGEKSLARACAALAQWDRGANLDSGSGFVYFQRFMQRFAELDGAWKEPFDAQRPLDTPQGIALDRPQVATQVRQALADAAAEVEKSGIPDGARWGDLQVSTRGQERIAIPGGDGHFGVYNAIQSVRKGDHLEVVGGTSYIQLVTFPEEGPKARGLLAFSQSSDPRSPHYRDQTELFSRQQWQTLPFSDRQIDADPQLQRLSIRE

Cytochrome P450 3A4 = Cytochrome P450 3A4 (Homo sapiens, UniProt P08684); conditions: Potency;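 further: confirmatory qHTS run detecting inhibitors and substrates of CYP3A4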
Sequence of Cytochrome P450 3A4 (P08684 whole entry): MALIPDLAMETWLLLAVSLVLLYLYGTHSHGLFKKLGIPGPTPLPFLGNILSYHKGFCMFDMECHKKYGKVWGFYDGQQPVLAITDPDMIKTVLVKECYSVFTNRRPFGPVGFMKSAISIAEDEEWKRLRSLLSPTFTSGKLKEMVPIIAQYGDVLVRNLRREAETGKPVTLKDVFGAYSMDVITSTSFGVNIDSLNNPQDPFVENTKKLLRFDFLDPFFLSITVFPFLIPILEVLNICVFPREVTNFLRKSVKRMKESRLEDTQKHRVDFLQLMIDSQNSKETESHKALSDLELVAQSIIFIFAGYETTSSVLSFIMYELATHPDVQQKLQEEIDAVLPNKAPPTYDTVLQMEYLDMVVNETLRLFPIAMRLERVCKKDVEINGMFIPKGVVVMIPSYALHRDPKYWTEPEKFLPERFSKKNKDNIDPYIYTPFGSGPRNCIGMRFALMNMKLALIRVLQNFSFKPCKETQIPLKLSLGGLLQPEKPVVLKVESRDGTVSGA

CAAX prenyl protease 2 = biological target: T2, CAAX prenyl protease 2 (Saccharomyces cerevisiae S288c, UniProt Q03530); assay type: biochemical
T2 sequence (Q03530 whole entry): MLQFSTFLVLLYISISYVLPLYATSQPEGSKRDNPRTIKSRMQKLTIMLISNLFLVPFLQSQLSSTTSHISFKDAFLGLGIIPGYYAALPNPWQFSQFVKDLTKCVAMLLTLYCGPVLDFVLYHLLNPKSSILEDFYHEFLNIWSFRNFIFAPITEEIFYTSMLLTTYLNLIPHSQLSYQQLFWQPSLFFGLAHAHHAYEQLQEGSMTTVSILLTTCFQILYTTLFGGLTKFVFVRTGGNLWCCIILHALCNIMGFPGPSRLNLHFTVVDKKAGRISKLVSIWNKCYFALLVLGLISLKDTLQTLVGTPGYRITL

Vero = assay: viability of Vero cells under compound – cytotoxicity control for flavivirus capping enzyme inhibitors (AID 588742); assay type: functional; conditions: Chlorocebus sabaeus
Aminopeptidase N = biological target: T3, Aminopeptidase N (Plasmodium falciparum FcB1/Columbia, UniProt O96935); assay: malaria alanyl aminopeptidase activity blockers – biochemical, fluorogenic H-Leu-NHMec substrate, 1536-well (AID 1445); design: species or system Plasmodium falciparum 3D7, 3D7
T3 sequence (O96935 whole entry): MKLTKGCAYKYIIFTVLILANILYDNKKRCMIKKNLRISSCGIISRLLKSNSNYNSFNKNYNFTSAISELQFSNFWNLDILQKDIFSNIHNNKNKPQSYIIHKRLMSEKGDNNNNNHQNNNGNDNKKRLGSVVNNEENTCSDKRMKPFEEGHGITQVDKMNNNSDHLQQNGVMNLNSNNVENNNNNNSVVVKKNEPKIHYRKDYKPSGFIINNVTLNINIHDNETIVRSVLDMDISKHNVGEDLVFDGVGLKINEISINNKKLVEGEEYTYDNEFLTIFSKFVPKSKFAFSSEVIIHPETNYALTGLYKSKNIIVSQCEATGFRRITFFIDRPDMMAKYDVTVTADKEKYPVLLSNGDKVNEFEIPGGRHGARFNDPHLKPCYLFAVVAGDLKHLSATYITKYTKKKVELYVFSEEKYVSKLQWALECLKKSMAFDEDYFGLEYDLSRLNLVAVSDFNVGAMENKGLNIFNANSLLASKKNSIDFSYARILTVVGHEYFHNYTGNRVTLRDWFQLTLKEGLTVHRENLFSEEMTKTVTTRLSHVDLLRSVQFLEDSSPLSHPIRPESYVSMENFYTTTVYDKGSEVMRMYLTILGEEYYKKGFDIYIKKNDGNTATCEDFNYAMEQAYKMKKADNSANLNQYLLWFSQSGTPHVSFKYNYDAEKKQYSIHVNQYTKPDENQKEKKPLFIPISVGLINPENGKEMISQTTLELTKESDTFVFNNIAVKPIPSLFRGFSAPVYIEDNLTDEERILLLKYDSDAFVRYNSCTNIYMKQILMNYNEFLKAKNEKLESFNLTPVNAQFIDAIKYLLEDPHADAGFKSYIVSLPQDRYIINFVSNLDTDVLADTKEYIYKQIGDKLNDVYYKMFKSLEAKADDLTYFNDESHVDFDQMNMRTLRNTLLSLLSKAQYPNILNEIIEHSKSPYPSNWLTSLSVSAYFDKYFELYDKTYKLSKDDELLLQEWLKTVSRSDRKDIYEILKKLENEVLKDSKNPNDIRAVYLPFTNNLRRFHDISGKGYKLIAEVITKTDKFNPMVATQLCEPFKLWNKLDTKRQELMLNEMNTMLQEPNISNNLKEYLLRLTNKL

Genome polyprotein = Genome polyprotein (dengue virus type 2, UniProt P29990); assay: flavivirus cap methylation enzyme inhibition – biochemical, confirmation dose response, primary screen (AID 588689); assay type: functional
Sequence of Genome polyprotein (P29990 2492-3391 limits assumed): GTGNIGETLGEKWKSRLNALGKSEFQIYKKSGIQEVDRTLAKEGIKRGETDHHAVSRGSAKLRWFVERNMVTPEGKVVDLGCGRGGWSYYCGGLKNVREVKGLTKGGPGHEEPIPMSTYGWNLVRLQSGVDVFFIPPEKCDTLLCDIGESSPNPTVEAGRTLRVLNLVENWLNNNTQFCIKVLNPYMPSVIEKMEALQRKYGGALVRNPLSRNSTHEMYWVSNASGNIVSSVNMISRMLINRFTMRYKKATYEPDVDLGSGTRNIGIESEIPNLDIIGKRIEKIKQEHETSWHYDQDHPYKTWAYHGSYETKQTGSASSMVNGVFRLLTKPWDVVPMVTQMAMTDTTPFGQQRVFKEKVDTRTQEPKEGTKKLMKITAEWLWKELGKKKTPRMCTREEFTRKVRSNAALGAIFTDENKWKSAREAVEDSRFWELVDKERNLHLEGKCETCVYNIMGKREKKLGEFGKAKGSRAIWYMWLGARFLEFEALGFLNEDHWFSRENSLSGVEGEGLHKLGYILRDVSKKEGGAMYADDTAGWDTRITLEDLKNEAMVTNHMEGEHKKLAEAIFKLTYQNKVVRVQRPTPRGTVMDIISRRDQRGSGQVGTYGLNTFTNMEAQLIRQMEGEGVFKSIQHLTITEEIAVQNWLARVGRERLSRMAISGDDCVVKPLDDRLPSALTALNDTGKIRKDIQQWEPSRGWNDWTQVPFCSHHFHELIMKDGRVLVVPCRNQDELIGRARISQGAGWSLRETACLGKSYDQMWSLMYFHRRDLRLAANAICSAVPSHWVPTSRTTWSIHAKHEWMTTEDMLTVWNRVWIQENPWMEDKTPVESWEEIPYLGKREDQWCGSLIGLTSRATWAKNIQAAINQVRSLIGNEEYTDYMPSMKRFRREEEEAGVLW

[2] = biological target: T4, Heat shock factor protein 1 (Mus musculus, UniProt P38532); assay: enhancement of HSF1-driven luciferase signal – cell-based, NIH3T3, luminescence, dose retest, confirmation (AID 435004); assay type: functional;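 further: stress induced by proteasome inhibitor MG132 added 30 min after compound; luciferase reporter driven by HSF1 response element in NIH3T3 cells; actives raise luminescence as potentiators of the MG132 stress response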
T4 sequence (P38532 whole entry): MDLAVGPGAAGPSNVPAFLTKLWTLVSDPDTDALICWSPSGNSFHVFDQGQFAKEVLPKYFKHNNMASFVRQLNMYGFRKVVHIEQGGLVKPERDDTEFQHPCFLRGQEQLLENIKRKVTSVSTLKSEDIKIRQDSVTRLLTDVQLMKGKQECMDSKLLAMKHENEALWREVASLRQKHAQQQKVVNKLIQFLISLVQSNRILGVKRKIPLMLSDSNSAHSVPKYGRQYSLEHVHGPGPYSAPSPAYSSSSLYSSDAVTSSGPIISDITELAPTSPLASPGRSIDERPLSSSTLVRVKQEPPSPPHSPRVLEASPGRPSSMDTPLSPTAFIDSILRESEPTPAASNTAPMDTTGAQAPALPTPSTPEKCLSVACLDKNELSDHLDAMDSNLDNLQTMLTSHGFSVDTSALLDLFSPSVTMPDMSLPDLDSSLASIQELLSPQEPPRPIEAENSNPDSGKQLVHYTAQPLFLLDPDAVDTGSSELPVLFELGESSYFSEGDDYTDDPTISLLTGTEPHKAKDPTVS

[3] = biological target: G-protein coupled receptor 55 (Homo sapiens, UniProt Q9Y2T6); assay: selective activators of receptor GPR55 – imaging, U2OS cells, beta-arrestin-GFP redistribution, primary screen (AID 1961); assay type: functional
Sequence of G-protein coupled receptor 55 (Q9Y2T6 whole entry): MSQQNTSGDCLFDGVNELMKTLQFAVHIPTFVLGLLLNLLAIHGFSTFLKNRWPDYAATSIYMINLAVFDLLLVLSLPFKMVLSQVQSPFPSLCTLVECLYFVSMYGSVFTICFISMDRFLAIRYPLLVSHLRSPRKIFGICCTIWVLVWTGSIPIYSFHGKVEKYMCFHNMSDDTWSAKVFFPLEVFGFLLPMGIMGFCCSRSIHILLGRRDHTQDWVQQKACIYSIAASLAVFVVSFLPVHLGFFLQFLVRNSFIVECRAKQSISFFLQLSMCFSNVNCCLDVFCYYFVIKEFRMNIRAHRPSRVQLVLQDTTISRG

BJ [4] = assay: cells; assay type: functional, cell-based; conditions: Homo sapiens
[5] = Luminescence Cell-Based Dose Response HTS to Identify Inhibitors of 5'UTR Stem-Loop Driven Prion Protein mRNA Translation in H4 Neuroglioblastoma Cells. [Related pubchem assays: 1827 (Project Summary), 1813 (Primary HTS)]; assay type: functional
Streptococcus = assay: GAS UMAA2166 growth inhibition – luminescence, BacTiterGlo, counter-screen for streptokinase expression inhibitor project, dose response (AID 1915); assay type: functional, organism-based;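 further: potency for reduction of bacterial viability or growth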
[6] = fluconazole-exposed Candida albicans growth modulators – fluorescence, retest, confirmation (AID 2467); assay type: functional, cell-based
Bcl-2-related protein A1 = biological target: T5, Bcl-2-related protein A1 (Mus musculus, UniProt Q07440); assay type: functional;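 further: confirmatory dose–response counterscreen on Bfl-1, used to check hits from a UBC13 polyubiquitin inhibitor campaign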
T5 sequence (Q07440 whole entry): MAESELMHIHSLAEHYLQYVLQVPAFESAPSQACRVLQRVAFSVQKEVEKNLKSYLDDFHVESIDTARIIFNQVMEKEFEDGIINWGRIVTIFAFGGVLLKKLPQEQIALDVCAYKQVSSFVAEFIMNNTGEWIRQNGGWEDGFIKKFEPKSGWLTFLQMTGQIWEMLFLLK

BJ [7] = assay: BJ-TERT fibroblast viability loss – cell-based, RAS-independent, luminescence, dose response (AID 1933); assay type: functional; conditions: Homo sapiens
[8] = luciferase reporter signal suppression in cells – H4 neuroglioma cells, luminescence, dose response (AID 1990); assay type: functional, cell-based
[9] = NIH-3T3 fibroblast cytotoxicity, dose response, cytotoxicity control, cell-based, fluorescence, Alamar Blue, secondary assay (AID 2327); assay type: functional;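 further: NIH-3T3 mouse fibroblasts cultured with fluconazole at 8 µg/mL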
[10] = DRD fibroblast viability loss – cell-based, non-viral oncogenic, luminescence, dose response (AID 1934); assay type: functional; conditions: Homo sapiens
BJ [11] = assay: BJ-TERT-LT-ST fibroblast viability loss – cell-based, RAS-independent, luminescence, dose response (AID 1935); assay type: functional; conditions: Homo sapiens;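 further: BJ fibroblasts immortalized with TERT plus LT and ST oncogenes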
Streptokinase A = biological target: T6, Streptokinase A (Streptococcus pyogenes serotype M1, UniProt P10520); assay: viability-normalized secreted streptokinase activity reduction – plasminogen activation absorbance, OD405, dose response (AID 1914); assay type: functional, Streptococcus pyogenes M1 GAS;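 further: secreted streptokinase activity via plasminogen activation per viability signal from cell pellet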
T6 sequence (P10520 whole entry): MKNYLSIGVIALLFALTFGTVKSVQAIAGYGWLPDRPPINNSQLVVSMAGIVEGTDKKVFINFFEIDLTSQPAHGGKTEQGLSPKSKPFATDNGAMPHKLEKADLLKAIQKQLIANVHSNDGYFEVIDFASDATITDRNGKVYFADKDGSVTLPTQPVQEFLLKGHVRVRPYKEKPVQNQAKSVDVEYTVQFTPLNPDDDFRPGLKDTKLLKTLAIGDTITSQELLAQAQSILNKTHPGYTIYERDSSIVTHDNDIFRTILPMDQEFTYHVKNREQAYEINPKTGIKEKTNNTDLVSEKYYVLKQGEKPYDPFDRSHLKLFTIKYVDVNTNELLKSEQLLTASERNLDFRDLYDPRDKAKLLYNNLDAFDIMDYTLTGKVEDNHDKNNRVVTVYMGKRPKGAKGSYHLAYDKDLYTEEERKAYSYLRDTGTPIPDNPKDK

[12] = microbe, parasite or virus in culture; assay type: functional; conditions: Mycobacterium tuberculosis
[13] = biological target: T7, Ubiquitin-conjugating enzyme E2 N (Homo sapiens, UniProt P61088); assay type: functional
T7 sequence (P61088 whole entry): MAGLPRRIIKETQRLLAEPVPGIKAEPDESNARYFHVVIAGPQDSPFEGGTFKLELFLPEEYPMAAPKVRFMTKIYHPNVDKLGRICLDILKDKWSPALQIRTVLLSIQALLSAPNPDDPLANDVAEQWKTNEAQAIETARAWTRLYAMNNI

[14] = alpha-synuclein stem-loop luciferase translation blockers – H4 neuroglioma cells, luminescence, confirmation (AID 1988); assay type: functional, cell-based
[15] = test system: Streptococcus sp. 'group A'; assay: Streptococcus pyogenes SK(-)GAS viability under kanamycin – luminescence, BacTiterGlo, confirmation, counter-screen for streptokinase expression inhibitor project, dose response (AID 1900); assay type: functional, organism-based
[16] = biological target: T7, Ubiquitin-conjugating enzyme E2 N; assay type: functional; remark: listed apart in the source

## Cc1ccc2scc(CN3CCCC3)c2c1
[1]
  AC50: 5.66 µM (active)

## CCOC(=O)c1ccc(-c2ccc(CO)o2)cc1
[1]
  AC50: 11.6 µM (active)

## CC(C)NC(=O)[C@H]1C[C@@H]1[C@H](NC(=O)OCc1ccccc1)c1ccccc1
Cytochrome P450 3A4
  AC50: 7.94 µM (inconclusive)

## COc1cccc(-c2c(C(=O)N/N=C/c3sccc3C)nnn2-c2nonc2N)c1
CAAX prenyl protease 2
  AC50: 7.8 µM (active)

## COc1cc(O)c(C)c(O)c1 [2,6-DIHYDROXY-4-METHOXYTOLUENE]
Cytochrome P450 3A4
  AC50: 39.8 µM (inconclusive)

## CCOc1cc([N+](=O)[O-])cc(/C=C2/NC(=O)N(Cc3ccccc3F)C2=O)c1O
Vero
  CC50: > 40 µM (active)
Aminopeptidase N
  IC50: 55.6 µM (active)
Genome polyprotein
  IC50: 58.8 µM (active)
[2]
  EC50: > 260 µM (inactive)

## CC(=C/c1ccccc1)/C=N/NC(=O)c1nnn(-c2nonc2N)c1CN1CCC(C)CC1
[3]
  EC50: 0.601 µM (active)

## CC[n+]1c(/C=C/N(C)c2ccccc2)n(-c2ccccc2)c2ccc(-c3nc4ccccc4s3)cc21
BJ [4]
  EC50: 2.93 µM (inconclusive)
[5]
  EC50: 5.72 µM (active)
Streptococcus
  EC50: 12 µM (active)
[6]
  EC50: 0.337 µM (active)
Bcl-2-related protein A1
  IC50: 13.2 µM (active)
BJ [7]
  EC50: 2.49 µM (inconclusive)
[8]
  EC50: 0.35 µM (active)
[9]
  EC50: 90 µM (active)
[10]
  EC50: 3.03 µM (active)
BJ [11]
  EC50: 2.7 µM (inconclusive)
Streptokinase A
  EC50: 13.3 µM (active)
[12]
  CC50: 3.06 µM (active)
[13]
  IC50: 9.83 µM (active)
[14]
  EC50: 0.387 µM (active)
[3]
  EC50: > 32 µM (inactive)
[15]
  EC50: 3.27 µM (active)
[16]
  IC50: 7.42 µM (active)

## C#CCCCCCCCCCCCc1ccco1
Cytochrome P450 3A4
  AC50: 39.8 µM (inconclusive)
